Data from PMC11811207, “Macrocycle-based PROTACs selectively degrade cyclophilin A and inhibit HIV-1 and HCV” (Nature Communications, 2025).
Values belong to the compound of their own block, whether it stands above or below them.

Experiments:
[1] = tested on: CypA and CypB; assay: CypA and CypB immunoblot in Jurkat cells treated with CsA-based PROTAC JW4-10; assay type: cell-based, human
Experimental: (§1) U87 cells (5 × 10^4 cells/well, 12 well plate), Huh7 cells (1 × 10^5 cells/well, 12 well plate), Calu-3 cells (1 × 10^5 cells/well, 12 well plate), Jurkat cells (5 × 10^5 cells/mL, 24 well plate, 1 mL/well), THP-1 Dual cells (4 × 10^5 cells/mL, 24 well plate, 1 mL/well), primary MDMs (confluent well), or primary resting/activated T cells (1-2 × 10^6 cells/well, 96 well plate) were treated with 5 μM Cyp-PROTAC or DMSO for 48 h. […] MLN4924 was washed out before the addition of Cyp-PROTAC, but VHLi was kept in for the duration of the experiment. In competitor experiments, Jurkat cells were treated with 10 μM TWH106 and 1 μM Cyp-PROTAC simultaneously for 48 h. For the time course experiments, Jurkat cells were treated with 5 μM Cyp inhibitor or DMSO and cells were harvested at indicated time points. For the titration experiments, Jurkat cells were treated with 0.01 – 10 μM Cyp inhibitor or DMSO for 24 h or 48 h. Before harvesting for immunoblot, cells were washed twice in PBS.
(§2) Cells were lysed in RIPA buffer (50 mM Tris pH 8.0, 150 mM sodium chloride, 1.0% Triton X-100, 0.5% sodium deoxycholate, 0.1% sodium dodecyl sulphate (SDS)) supplemented with protease inhibitors (cOmplete mini, EDTA-free, Roche) and phosphatase inhibitors (PhosSTOP, Roche). After 10 min incubation on ice, samples were centrifuged (16000 × g, 10 min, 4 °C), and the supernatant protein content was determined using Pierce^TM BCA Protein Assay Kit (Thermo Fisher Scientific). Samples were combined with 4x Laemmli sample buffer (200 mM Tris pH 6.8, 40% glycerol, 8% SDS, 0.4% Bromophenol Blue) and the appropriate amount of RIPA buffer to normalise protein concentrations of samples and boiled for 5 min. Proteins were separated by SDS-PAGE on 15% polyacrylamide gels and transferred onto nitrocellulose membrane using the Trans-Blot Turbo Transfer System (Bio-Rad). […] Densitometry analysis was performed using ImageJ (v2.14.0), and normalised protein densities were calculated by normalisation to β-actin loading control and untreated control as stated. […]

[2] = molecular target: T1, CypA (Homo sapiens, UniProt P62937); assay: CypA degradation in Jurkat cells by immunoblot; assay type: cell-based; conditions: for effect on CypA levels in the absence of PROTAC: Jurkat, MLN4924 1 μM 6 h or VHLi 50 μM
T1 construct: endogenous in cells; host or cells: Jurkat; also Calu-3, THP-1, MDMs, U87, Huh7, primary human CD4+ T cells
T1 sequence (P62937 whole entry): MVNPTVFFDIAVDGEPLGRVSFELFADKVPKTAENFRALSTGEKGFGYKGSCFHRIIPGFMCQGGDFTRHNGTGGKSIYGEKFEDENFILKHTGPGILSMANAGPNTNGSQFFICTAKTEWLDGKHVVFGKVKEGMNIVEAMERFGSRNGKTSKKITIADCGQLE
Experimental: as §1
as §2, with “(Bio-Rad). Blots were blocked in 5% milk in PBS-Tween for 1 h and incubated with primary antibodies in 5% milk in PBS-Tween overnight. After washing in PBS-Tween, blots were incubated with IRDye® fluorescent secondary antibodies (LI-COR) for 1 h, washed in PBS-Tween, then PBS, and visualised on an LI-COR Odyssey imaging system. Uncropped and unprocessed scans are provided in the Source Data file (main figures) and in the Figshare research data repository 10.6084/m9.figshare.c.7387381 (supplementary figures).” for “(Bio-Rad).”
DC50s and Dmaxs were calculated from sigmoidal (4-parameter logistic) fits, mean (n = 2 independent experiments).

[3] = molecular target: full-length human CypA (Homo sapiens, UniProt P62937); assay: SPR against CypA (immobilised on CM5 chip)
full-length human CypA, sequence (P62937 whole entry): as above

[4] = tested on: HIV-1 NL4.3; assay: Wild-type HIV-1 spreading infection in activated primary CD4+ T cells
[5] = molecular target: T2, CypB (Homo sapiens, UniProt P23284); assay: CypB levels in Jurkat cells by immunoblot; assay type: cell-based
T2 construct: endogenous in cells; host or cells: Jurkat
T2 sequence (P23284 34-216): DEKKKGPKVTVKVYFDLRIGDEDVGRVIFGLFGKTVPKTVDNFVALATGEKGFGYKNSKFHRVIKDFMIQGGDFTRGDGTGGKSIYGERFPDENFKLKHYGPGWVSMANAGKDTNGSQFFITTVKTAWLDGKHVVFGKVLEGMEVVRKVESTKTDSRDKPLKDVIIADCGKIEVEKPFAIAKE
Experimental: as §1, with “For the time course experiments, Jurkat cells were treated with 5 μM Cyp inhibitor or DMSO and cells were harvested at indicated time points. For the titration experiments, Jurkat cells were treated with 0.01 – 10 μM Cyp inhibitor or DMSO for 24 h or 48 h. Before harvesting for immunoblot, cells were washed twice in PBS.” left out
Cells were lysed in RIPA buffer (50 mM Tris pH 8.0, 150 mM sodium chloride, 1.0% Triton X-100, 0.5% sodium deoxycholate, 0.1% sodium dodecyl sulphate (SDS)) supplemented with protease inhibitors (cOmplete mini, EDTA-free, Roche) and phosphatase inhibitors (PhosSTOP, Roche). After 10 min incubation on ice, samples were centrifuged (16000 × g, 10 min, 4 °C), and the supernatant protein content was determined using Pierce^TM BCA Protein Assay Kit (Thermo Fisher Scientific). […] Densitometry analysis was performed using ImageJ (v2.14.0), and normalised protein densities were calculated by normalisation to β-actin loading control and untreated control as stated. […]

[6] = tested on: HCV JFH-1 replicon; assay: HCV JFH-1 subgenomic replicon (luciferase) in Huh7 cells; assay type: cell-based; conditions: Huh7, 5 μM pretreatment, washed out, not readded
Experimental: HCV JFH-1 subgenomic replicon (SGR) (pFKI389Luc/NS3-3’_dg_JFH, previously described)[87] plasmid DNA (10 μg) was linearised by digestion with MluI, and purified linearised DNA (1 μg) was used as a template for in vitro transcription, according to the MEGAscript T7 Transcription Kit instructions (Invitrogen). RNA was resuspended in nuclease-free water at a concentration of 1 μg/μL, aliquoted, and stored at − 80 °C.
HCV SGR RNA (5 μg or 1 μg) was electroporated into 2 × 10^6 or 2 × 10^5 Huh7 cells, respectively, using a Neon transfection system (Thermo Scientific). Single-cell suspensions were washed with PBS and resuspended in 100 μL or 10 μL of Buffer R, respectively. Resuspended cells were mixed with RNA and loaded into a Neon Tip and electroporated using the Neon Transfection system (1400 V, 20 ms, 1 pulse) and resuspended in 12 mL or 1.2 mL of media, respectively, prior to seeding in 96 well plates at a density of ~2 × 10^4 cells/well. […] Experiments were carried out in triplicate. Firefly luciferase activity was measured on a Glomax (Promega) at 4 h post electroporation (hpe) and 48 hpe using the SteadyGlo reagent (Promega) according to the manufacturer’s instructions. Data at 48 hpe were normalised to the input luciferase signal at 4 hpe.

[7] = tested on: Jurkat cells; assay: MTT viability assay, Jurkat cells; assay type: cell-based, human; conditions: highest concentrations tested
Experimental: (§3) U87 cells (1 × 10^4 cells/well, 48 well plate) or Jurkat cells (5 × 10^3 cells/well, 96 well U-bottom plate) were treated with serial dilutions of Cyp inhibitors as indicated. After 48 h, the media was aspirated and replaced with fresh Cyp inhibitor dilutions and the lentiviral vector (MOI: 0.25) for a further 48 h. Experiments were carried out in triplicate.
(§4) 3-(4,5-Dimethyl-2-thiazolyl)-2,5-diphenyl-2H-tetrazolium bromide (MTT) assay was performed on U87 cells, Jurkat cells or Huh7 cells treated with Cyp inhibitors as indicated. At the time point indicated, 10% v/v MTT (stock at 5 mg/mL in PBS) (475989, Sigma Aldrich) was added, and cells were incubated for 1 - 2 h at 37 °C. 100 μL solubilisation solution (10% SDS and 0.01 M HCl) was added, and after overnight incubation at 37 °C, absorbance was measured at 570 nm. Experiments were carried out in triplicate.

[8] = tested on: THP-1 cell proteome; assay: Mass spectrometry-based proteomics in THP-1 cells; assay type: cell-based, human; conditions: THP-1, 5 μM, 72 h
Experimental: THP-1 Dual cells were treated with 5 μM Cyp inhibitor or DMSO for 72 h. After washing with PBS, cells were lysed (5% SDS, 5 mM tris(2-carboxyethyl)phosphine (TCEP), 10 mM chloroacetamide (CAA), 100 mM Tris, 1% Triton X-100, pH 8.5) and boiled for 10 min followed by sonication in a water bath for 10 min. Protein concentration was estimated by BCA assay (Thermo Fisher Scientific). Protein digestion was automated on a KingFisher APEX robot (Thermo Fisher Scientific) in a 96-well format using a protocol from Koenig et al.[83] with minor modifications. […]
Peptides were then dissolved in 0.5% TFA before liquid chromatography–tandem mass spectrometry (MS/MS) analysis. The mixture of tryptic peptides was analysed using an Ultimate3000 high-performance liquid chromatography system coupled online to an Eclipse mass spectrometer (Thermo Fisher Scientific). […]
All raw files were analysed by DIA-NN v1.8.1[84], searching against library generated automatically using Human reference proteome (UniProt) and standard settings: peptides from 7 to 30 amino acids, max number of missed cleavages of 1, oxidation (M) and protein-acetylation as only variable modifications. The data files generated by DIA-NN were analysed using Perseus version 2.0.10.0[85]. […]

[9] = tested on: U87 cells; assay: MTT viability assay, U87 cells; assay type: cell-based; conditions: U87, 10 μM
Experimental: as §3, §4

[10] = molecular target: N-truncated CypB (Homo sapiens, UniProt P23284); assay: SPR against N-truncated CypB (immobilised on CM5 chip)
N-truncated CypB, sequence (P23284 34-212): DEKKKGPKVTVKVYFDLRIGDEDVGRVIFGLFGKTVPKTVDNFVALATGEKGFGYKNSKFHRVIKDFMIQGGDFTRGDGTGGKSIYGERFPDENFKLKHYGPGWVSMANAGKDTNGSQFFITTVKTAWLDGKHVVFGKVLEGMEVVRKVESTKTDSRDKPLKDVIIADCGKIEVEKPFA

Structure (SMILES): CC[C@@H]1NC(=O)[C@H]([C@H](O)[C@H](C)C/C=C/CCCCC(=O)N[C@H](C(=O)N2C[C@H](O)C[C@H]2C(=O)N[C@@H](C)c2ccc(-c3scnc3C)cc2)C(C)(C)C)N(C)C(=O)[C@H](C(C)C)N(C)C(=O)[C@H](CC(C)C)N(C)C(=O)[C@H](CC(C)C)N(C)C(=O)[C@@H](C)NC(=O)[C@H](C)NC(=O)[C@H](CC(C)C)N(C)C(=O)[C@H](C(C)C)NC(=O)[C@H](CC(C)C)N(C)C(=O)CN(C)C1=O [JW4-10]
- degradation of CypA and CypB ([1]; 5 μM, 48 h): degraded both CypA and CypB
- rescue by excess VHL inhibitor VH298 pretreatment ([1]; 50 µM VHLi 2 h before 5 µM PROTAC): rescued CypA, but not CypB
- rescue by MLN4924 pretreatment ([1]; MLN4924 1 μM 6 h before 5 μM PROTAC): fully rescued CypA, but not CypB

- effect on CypA levels in the absence of PROTAC [2]: no impact on CypA levels
Structure (SMILES): NS(=O)(=O)OC[C@@H]1C[C@@H](n2ccc3c(N[C@H]4CCc5ccccc54)ncnc32)C[C@@H]1O [MLN4924, reference compound]

Structure (SMILES): C[C@@H]1NC(=O)[C@H](Cc2ccc([N+](=O)[O-])cc2)NC(=O)C/C=C/c2ccc3ccc(nc3c2)[C@@H](C)OC(=O)[C@@H]2CCCN(N2)C1=O [TWH106]
- effect on CypA protein levels, time course ([2]; Jurkat cells, 5 μM, up to 6 days): did not reduce CypA levels except a small decrease after 6 days
- effect on CypA levels, dose response ([2]; Jurkat cells, 0.01 – 10 μM, 24 h and 48 h): mild CypA loss only at 10 µM and after 24 hours
- Kd ([3]; CypA KD, SPR equilibrium analysis, full-length CypA, mean of two independent experiments ± SD): 53 ± 5 nM
- Kd ([3]; CypA dissociation constant (KD) from sigmoid fit, representative experiment, one of two independent experiments, Supplementary Fig. 2): 48 nM
- antiviral activity, pretreatment only ([4]; 5 μM 48 h pretreatment, not readded after infection): abrogated
- antiviral activity (Gag+ cells, viral particles in supernatant) ([4]; continuous treatment 1 μM or 5 μM): antiviral
- effect on CypB levels, time course ([5]; 5 μM, 6 days): most effectively reduced
- effect on CypB levels, dose response ([5]; 0.01–10 μM, 48 h): dose-dependent decrease in CypB
- antiviral activity against HCV replicon, pretreatment only [6]: abrogated
- cell viability (MTT) [7]: toxic
- effect on CypA in proteomics [8]: did not affect CypA levels
- cell viability (MTT) [9]: slightly toxic
- Kd ([10]; CypB KD, SPR equilibrium analysis, N-truncated CypB, mean of two independent experiments ± SD): 139 ± 24 nM
- Kd ([10]; CypB dissociation constant (KD) from sigmoid fit, representative experiment, one of two independent experiments, Supplementary Fig. 3): 163 nM
- lower affinity for N-truncated CypB compared to CypA ([10]; SPR KD CypB vs CypA): 2-3 fold

Structure (SMILES): Cc1ncsc1-c1ccc(CNC(=O)[C@@H]2C[C@@H](O)CN2C(=O)[C@@H](NC(=O)C2(C#N)CC2)C(C)(C)C)cc1 [VH298, reference compound]
- effect on CypA levels in the absence of PROTAC [2]: did not impact CypA levels
